Among the data in patent US20230150970A1, “AMINOPYRIMIDINE DERIVATIVES AND THEIR USE AS ARYL HYDROCARBON RECEPTOR MODULATORS” (DONG-A ST CO., LTD., priority 2020, published 2023) are IC50 values, retold here.

The IC50 is the concentration at which inhibition is half-maximal. Read a high IC50 as weaker potency.

The experiment addresses T1, AhR (Homo sapiens, UniProt P35869).
T1 sequence (P35869 11-848): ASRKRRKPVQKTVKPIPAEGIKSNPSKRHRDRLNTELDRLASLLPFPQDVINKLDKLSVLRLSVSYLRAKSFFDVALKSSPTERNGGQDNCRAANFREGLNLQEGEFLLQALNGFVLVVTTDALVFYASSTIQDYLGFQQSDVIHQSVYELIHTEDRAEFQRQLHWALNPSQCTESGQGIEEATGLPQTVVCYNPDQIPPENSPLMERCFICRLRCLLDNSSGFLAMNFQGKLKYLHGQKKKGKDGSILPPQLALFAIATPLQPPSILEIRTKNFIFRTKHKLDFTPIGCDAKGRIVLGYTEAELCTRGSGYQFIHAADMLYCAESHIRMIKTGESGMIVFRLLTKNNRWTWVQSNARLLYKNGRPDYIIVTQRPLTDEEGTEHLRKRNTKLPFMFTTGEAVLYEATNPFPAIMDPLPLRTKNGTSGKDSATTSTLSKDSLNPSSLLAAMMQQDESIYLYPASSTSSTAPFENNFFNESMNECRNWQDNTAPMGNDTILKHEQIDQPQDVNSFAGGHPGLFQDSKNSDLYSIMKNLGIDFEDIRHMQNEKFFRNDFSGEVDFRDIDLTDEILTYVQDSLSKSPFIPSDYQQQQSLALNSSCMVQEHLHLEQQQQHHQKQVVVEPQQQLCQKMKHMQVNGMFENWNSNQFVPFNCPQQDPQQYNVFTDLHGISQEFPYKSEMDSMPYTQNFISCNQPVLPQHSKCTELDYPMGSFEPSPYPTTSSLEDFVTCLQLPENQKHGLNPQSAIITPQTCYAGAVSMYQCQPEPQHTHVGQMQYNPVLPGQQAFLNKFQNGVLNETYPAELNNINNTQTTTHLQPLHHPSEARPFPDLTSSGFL
The experiment is described as follows: In Vitro Assay 1: XRE-luciferase reporter assay, antagonism in human cell line (HepG2). The settings on record: Assay 1: AhR-Luc Human Antagonism (IC50, nM), values marked *: kynurenine 50 μM, 6 hours. On the technique in general: A reporter such as luciferase makes a cellular process visible.
In the case of `O[C@@H]1CCCC[C@H]1Nc1cc(-c2ccc(Cl)cc2)nc(-c2cccnc2)n1` (relative stereo) [Example 35, trans-2-((6-(4-chlorophenyl)-2-(pyridin-3-yl)pyrimidin-4-yl)amino)cyclohexan-1-ol], the half-maximal inhibitory concentration (IC50) is greater than 1000 nM.
The value for `O[C@@H]1CCC[C@H]1Nc1cc(-c2ccc(Cl)cc2)nc(-c2cccnc2)n1` (relative stereo) [Example 68, trans-2-((6-(4-chlorophenyl)-2-(pyridin-3-yl)pyrimidin-4-yl)amino)cyclopentan-1-ol] was 10 to 100 nM; that for `C[C@@H]1CN(c2cc(-c3ccc(Cl)cc3)nc(-c3cccnc3)n2)[C@@H](C)CN1` (relative stereo) [Example 103, Trans-4-(4-chlorophenyl)-6-(2,5-dimethylpiperazin-1-yl)-2-(pyridin-3-yl)pyrimidine] was greater than 1000 nM.
For the molecule `Clc1ccc(-c2cc(N[C@@H]3COC[C@H]3N3CCCC3)nc(-c3cccnc3)n2)cc1` (relative stereo) [Example 201, Trans-6-(4-chlorophenyl)-2-(pyridin-3-yl)-N-(4-(pyrrolidin-1-yl)tetrahydrofuran-3-yl)pyrimidin-4-amine], the half-inhibitory concentration (IC50) was greater than 1000 nM.
For `CC(C)N1C[C@@H](O)[C@H](Nc2cc(-c3ccc(Cl)cc3)nc(-c3cccnc3)n2)C1` (relative stereo) [Example 209, Trans-4-((6-(4-chlorophenyl)-2-(pyridin-3-yl)pyrimidin-4-yl)amino)-1-isopropylpyrrolidin-3-ol], the concentration for half-maximal inhibition (IC50) is greater than 1000 nM.
For `C[C@@H](CO)Nc1cc(-c2ccc(Cl)cc2)nc(-c2cccnc2)n1` [Example 2, (S)-2-((6-(4-chlorophenyl)-2-(pyridin-3-yl)pyrimidin-4-yl)amino)propan-1-ol] the value was 100 to 1000 nM; for `C[C@@H](CO)Nc1nc(-c2ccc(Cl)cc2)cc(-c2cccnc2)n1` [Example 3, (S)-2-((4-(4-chlorophenyl)-6-(pyridin-3-yl)pyrimidin-2-yl)amino)propan-1-ol], 100 to 1000 nM.
The value for `CC(C)(CO)Nc1cc(-c2ccc(Cl)cc2)nc(-c2cccnc2)n1` [Example 4, 2-((6-(4-chlorophenyl)-2-(pyridin-3-yl)pyrimidin-4-yl)amino)-2-methylpropan-1-ol] was 100 to 1000 nM; that for `CC(C)(CO)Nc1nc(-c2ccc(Cl)cc2)cc(-c2cccnc2)n1` [Example 5, 2-((4-(4-chlorophenyl)-6-(pyridin-3-yl)pyrimidin-2-yl)amino)-2-methylpropan-1-ol] was greater than 1000 nM.
The value for `OCCNc1cc(-c2ccc(Cl)cc2)nc(-c2cccnc2)n1` [Example 6, 2-((6-(4-chlorophenyl)-2-(pyridin-3-yl)pyrimidin-4-yl)amino)ethan-1-ol] was 100 to 1000 nM; that for `OCCCNc1cc(-c2ccc(Cl)cc2)nc(-c2cccnc2)n1` [Example 7, 3-((6-(4-chlorophenyl)-2-(pyridin-3-yl)pyrimidin-4-yl)amino)propan-1-ol] was greater than 1000 nM.
The molecule `C[C@H](O)CNc1cc(-c2ccc(Cl)cc2)nc(-c2cccnc2)n1` [Example 8, (S)-1-((6-(4-chlorophenyl)-2-(pyridin-3-yl)pyrimidin-4-yl)amino)propan-2-ol] displayed an IC50 of 100 to 1000 nM.
The value for `C[C@@H](O)CNc1cc(-c2ccc(Cl)cc2)nc(-c2cccnc2)n1` [Example 9, (R)-1-((6-(4-chlorophenyl)-2-(pyridin-3-yl)pyrimidin-4-yl)amino)propan-2-ol] was 100 to 1000 nM; that for `OCC(O)CNc1cc(-c2ccc(Cl)cc2)nc(-c2cccnc2)n1` (centres unmarked) [Example 10, 3-((6-(4-chlorophenyl)-2-(pyridin-3-yl)pyrimidin-4-yl)amino)propane-1,2-diol] was 100 to 1000 nM; that for `C[C@H](CO)Nc1cc(-c2ccc(Cl)cc2)nc(-c2cccnc2)n1` [Example 11, (R)-2-((6-(4-chlorophenyl)-2-(pyridin-3-yl)pyrimidin-4-yl)amino)propan-1-ol] was 10 to 100 nM.
The value for `CC(C)C(CO)Nc1cc(-c2ccc(Cl)cc2)nc(-c2cccnc2)n1` (centres unmarked) [Example 12, 2-((6-(4-chlorophenyl)-2-(pyridin-3-yl)pyrimidin-4-yl)amino)-3-methylbutan-1-ol] was 100 to 1000 nM; that for `CC(C)[C@@H](CO)Nc1cc(-c2ccc(Cl)cc2)nc(-c2cccnc2)n1` [Example 13, (S)-2-((6-(4-chlorophenyl)-2-(pyridin-3-yl)pyrimidin-4-yl)amino)-3-methylbutan-1-ol] was greater than 1000 nM.
The value for `CC(C)[C@H](CO)Nc1cc(-c2ccc(Cl)cc2)nc(-c2cccnc2)n1` [Example 14, (R)-2-((6-(4-chlorophenyl)-2-(pyridin-3-yl)pyrimidin-4-yl)amino)-3-methylbutan-1-ol] was greater than 1000 nM; that for `CCC(CO)Nc1cc(-c2ccc(Cl)cc2)nc(-c2cccnc2)n1` (centres unmarked) [Example 15, 2-((6-(4-chlorophenyl)-2-(pyridin-3-yl)pyrimidin-4-yl)amino)butan-1-ol] was greater than 1000 nM; that for `OCC(CO)Nc1cc(-c2ccc(Cl)cc2)nc(-c2cccnc2)n1` [Example 16, 2-((6-(4-chlorophenyl)-2-(pyridin-3-yl)pyrimidin-4-yl)amino)propane-1,3-diol] was greater than 1000 nM.
For the molecule `O[C@@H](CNc1cc(-c2ccc(Cl)cc2)nc(-c2cccnc2)n1)c1ccccc1` [Example 17, (R)-2-((6-(4-chlorophenyl)-2-(pyridin-3-yl)pyrimidin-4-yl)amino)-1-phenylethan-1-ol], the IC50 was greater than 1000 nM.
With `O[C@H](CNc1cc(-c2ccc(Cl)cc2)nc(-c2cccnc2)n1)c1ccccc1` [Example 18, (S)-2-((6-(4-chlorophenyl)-2-(pyridin-3-yl)pyrimidin-4-yl)amino)-1-phenylethan-1-ol], the IC50 is greater than 1000 nM.
`Clc1ccc(-c2cc(NCC3CCOCC3)nc(-c3cccnc3)n2)cc1` [Example 19, 6-(4-chlorophenyl)-2-(pyridin-3-yl)-N-((tetrahydro-2H-pyran-4-yl)methyl)pyrimidin-4-amine] had an IC50 of 100 to 1000 nM.
The value for `CN(C)CCCNc1cc(-c2ccc(Cl)cc2)nc(-c2cccnc2)n1` [Example 20, N^1-(6-(4-chlorophenyl)-2-(pyridin-3-yl)pyrimidin-4-yl)-N^3,N^3-dimethylpropane-1,3-diamine] was greater than 1000 nM.
The value for `CCNc1cc(-c2ccc(Cl)cc2)nc(-c2cccnc2)n1` [Example 21, 6-(4-chlorophenyl)-N-ethyl-2-(pyridin-3-yl)pyrimidin-4-amine] was 100 to 1000 nM; that for `CCCNc1cc(-c2ccc(Cl)cc2)nc(-c2cccnc2)n1` [Example 22, 6-(4-chlorophenyl)-N-propyl-2-(pyridin-3-yl)pyrimidin-4-amine] was 100 to 1000 nM; that for `CCCCNc1cc(-c2ccc(Cl)cc2)nc(-c2cccnc2)n1` [Example 23, N-butyl-6-(4-chlorophenyl)-2-(pyridin-3-yl)pyrimidin-4-amine] was greater than 1000 nM.
Take `CCC(O)CNc1cc(-c2ccc(Cl)cc2)nc(-c2cccnc2)n1` (centres unmarked) [Example 24, 1-((6-(4-chlorophenyl)-2-(pyridin-3-yl)pyrimidin-4-yl)amino)butan-2-ol]: the IC50 was in the range of 100 to 1000 nM.
In turn, `Clc1ccc(-c2cc(NCC3CC3)nc(-c3cccnc3)n2)cc1` [Example 25, 6-(4-chlorophenyl)-N-(cyclopropylmethyl)-2-(pyridin-3-yl)pyrimidin-4-amine] returned a half-maximal inhibitory concentration (IC50) greater than 1000 nM.
For `Clc1ccc(-c2cc(NC3CCCC3)nc(-c3cccnc3)n2)cc1` [Example 26, 6-(4-chlorophenyl)-N-cyclopentyl-2-(pyridin-3-yl)pyrimidin-4-amine] the value was greater than 1000 nM; for `CC(C)(C)Nc1cc(-c2ccc(Cl)cc2)nc(-c2cccnc2)n1` [Example 28, N-(tert-butyl)-6-(4-chlorophenyl)-2-(pyridin-3-yl)pyrimidin-4-amine], greater than 1000 nM; for `O[C@@H]1CCC[C@H]1Nc1cc(-c2ccc(Cl)cc2)nc(-c2cccnc2)n1` [Example 29, (1R,2R)-2-((6-(4-chlorophenyl)-2-(pyridin-3-yl)pyrimidin-4-yl)amino)cyclopentan-1-ol], 10 to 100 nM.
Turning to `O[C@H]1CCC[C@H]1Nc1cc(-c2ccc(Cl)cc2)nc(-c2cccnc2)n1` [Example 30, (1S,2R)-2-((6-(4-chlorophenyl)-2-(pyridin-3-yl)pyrimidin-4-yl)amino)cyclopentan-1-ol], the half-inhibitory concentration (IC50) is 10 to 100 nM.
`Clc1ccc(-c2cc(NCc3ccccn3)nc(-c3cccnc3)n2)cc1` [Example 31, 6-(4-chlorophenyl)-N-(pyridin-2-ylmethyl)-2-(pyridin-3-yl)pyrimidin-4-amine] registered an IC50 of 100 to 1000 nM.
`Clc1ccc(-c2cc(NCc3cccnc3)nc(-c3cccnc3)n2)cc1` [Example 32, 6-(4-chlorophenyl)-2-(pyridin-3-yl)-N-(pyridin-3-ylmethyl)pyrimidin-4-amine] displayed an IC50 of 100 to 1000 nM.
